{"source": "patent US12377067B2", "about": "“Methods of treating PAH with combinations of ralinepag and other agents” (Arena Pharmaceuticals, Inc., priority 2016, dated 2025)", "key": {"[1]": {"assay": "22-week randomized, double-blind, placebo-controlled clinical trial", "assay_type": "in vivo, patients", "procedure": "A 22-week randomized, double-blind, placebo-controlled study with a dose titration period of up to 9 weeks was conducted. Sixty-one patients were randomized 2:1 ralinepag to placebo. Right Heart Catheterization (RHC) measurements were obtained prior to study Day 1 of the dose titration period and at Week 22. The following values were obtained and recorded: pulmonary artery pressure (PAP) (systolic, diastolic, and mean), heart rate (HR), right atrial pressure (RAP), pulmonary capillary wedge pressure (PCWP) right ventricular pressure (RVP) and cardiac output (CO), pulmonary vascular resistance (PVR), arterial and mixed venous oxygen saturation (FiO2) (if applicable). Systemic vascular resistance (SVR) was estimated from blood pressure measurements. All patients were receiving background PAH treatment with an endothelin receptor antagonist, phosphodiesterase type-5-inhibitor, or soluble guanylate cyclase activator, alone or in combination.\nThe primary efficacy endpoint for the study was change from baseline in PVR after 22 weeks of treatment. Additional analyses included change from baseline in 6 MWD after 22 weeks of treatment, hemodynamics, and safety and tolerability. Ralinepag was administered as a capsule in 0.01, 0.02, 0.03, 0.04, and 0.10 mg dose strengths.\nThe starting dose of ralinepag was 0.01 mg twice daily. The dose of ralinepag was titrated according to patient tolerability. If the initial dose was tolerated (0.01 mg twice daily), then the dose was increased once a week in the following fashion: 0.02 mg twice daily, 0.03 mg twice daily, 0.04 mg twice daily, 0.06 mg twice daily, 0.08 mg, 0.1 mg twice daily, 0.2 mg twice daily and 0.3 mg twice daily. The dose was optionally escalated to a possible maximum total daily dose of 0.6 mg (0.3 mg twice daily), pending tolerability."}, "[2]": {"system": "human PASMCs from PAH patients", "assay": "Cell proliferation assay (MTS), serum-induced growth", "assay_type": "cell-based", "conditions": "for Emax: read-out: Emax (% Inhibition); for times more potent than ralinepag alone: individual fits (Table 1)"}, "Half-life in vivo": {"assay": "Half-life in vivo", "conditions": "irrespective of the dose"}, "[3]": {"system": "human PASMCs from PAH patients", "assay": "Cell proliferation assay (MTS), serum-induced growth", "assay_type": "cell-based", "procedure": "Primary cell lines of distal PASMCs from PAH patients were derived from explanted lungs as previously described (Falcetti et al., 2010; Bubb et al., 2014). These cells have an abnormal proliferative capacity when grown in culture (Zhang et al., 2007; Falcetti et al., 2010). Frozen cells were revived and grown in human smooth muscle basal medium-2 (SMBM; Lonza, Slough, UK) supplemented with 9% fetal bovine serum (FBS) at 37° C. in a humidified atmosphere of 5% CO2. After reaching confluence, cells were washed with phosphate-buffered saline (PBS) and treated with trypsin-EDTA for further passage. Only cells between passages 3 and 10 were used for experiments.\nComparative concentration-dependent effects of IP receptor agonists on cell proliferation were assessed on human PASMCs derived from PAH patients. Cells were seeded onto 96-well plates at a density of 1×10^4 cells/ml and grown at 37° C. in a humidified CO2 incubator in human smooth muscle basal medium-2 (SMBM; Lonza) containing 9% FBS and penicillin-streptomycin (Pen/Strep; 50 units/ml). After 24 hours, cells were growth arrested by incubating for 48 hours in fresh media containing no added serum. Media was then subsequently removed, replaced with human SMBM containing 9% serum with or without 0.1% DMSO in the absence and presence of the IP receptor agonist (either ralinepag, iloprost, treprostinil or MRE-269) and cells treated with the IP receptor agonist for 4 days over the concentration range ([…]). Responses were directly compared in cells containing the IP receptor antagonist, RO-1138452 (1 μM), which was added to cells 30-60 minutes prior to the addition of the IP agonist and remained throughout the experiment. Cells incubated with no added serum over the same time period (4 days) acted as the time control.\nCell proliferation was obtained using an MTS proliferation kit (Promega), a colorimetric method for determining the number of viable cells which is based on the cleavage of the tetrazolium salt MTS to formazan by cellular mitochondrial dehydrogenases. An increase in cell number leads to a proportional increase in the amount of formazan dye formed which is quantified by measuring the absorbance of the dye solution at 490 nm. In each case background absorbance was corrected by subtracting the average absorbance from the “no cell” control wells from all other absorbance values.\nCell proliferation was then normalized to the growth response induced by FBS alone, which was taken as the FBS response minus the time control (=100% growth at 4 days). Growth responses induced in presence of solvent±drugs is shown as % change in cell proliferation relative to the FBS response alone in all figures.\nAll data are presented as mean±standard error of mean (S.E.M) of at least 5 observations. Agonist log-concentration curves were constructed and fitted using the non-linear fitting routine in GraphPad Prism 4 or 6 (San Diego, Calif., USA). The concentration of agonist causing 50% of the maximal response (Emax) was expressed as the negative log (pEC50) and the mean EC50 calculated. P values <0.05 are considered statistically significant."}, "[4]": {"conditions": "Homo sapiens, PASMC, 96 h, ralinepag alone or + 100 nM drug, from individual fits, 9% FBS + 0.1% DMSO, 4 days"}, "[5]": {"conditions": "in the presence of 100 nM riociguat"}}, "note": "Read-outs that look alike come from different tables or passages of the source.", "data": [{"compound": "O=C(O)COC[C@H]1CC[C@H](COC(=O)N(c2ccccc2)c2ccc(Cl)cc2)CC1", "note": "[ralinepag, 2-(((1r,4r)-4-(((4-chlorophenyl)(phenyl)carbamoyloxy)methyl)cyclohexyl)methoxy)acetic acid]", "values": [{"measurement": "6-minute walk distance (6MWD)", "setting": "[1]; after 22 weeks", "value": "numerical improvement"}, {"measurement": "change from baseline in pulmonary vascular resistance (PVR)", "setting": "[1]; after 22 weeks, compared to placebo, on background PAH treatment", "value": "statistically significant change from baseline"}, {"measurement": "adverse events", "setting": "[1]; human, in vivo", "value": "consistent with other prostacyclin treatments"}, {"measurement": "inhibition at 0.001 µM", "setting": "[2]; Homo sapiens, PASMC, 1 nM ralinepag in the presence of 100 nM sildenafil", "value": 27, "unit": "%"}, {"measurement": "inhibition at 0.01 µM", "setting": "[2]; Homo sapiens, PASMC, 10 nM ralinepag combined with 100 nM riociguat", "value": 45, "unit": "%"}, {"measurement": "inhibition at 10 µM", "setting": "[2]; Homo sapiens, PASMC, 10 μM ralinepag in the presence of 100 nM sildenafil", "value": 56, "unit": "%"}, {"measurement": "inhibition at 10 µM", "setting": "[2]; Homo sapiens, PASMC, 10 μM ralinepag in the presence of 100 nM treprostinil", "value": 69, "unit": "%"}, {"measurement": "EC50", "setting": "[2]; Homo sapiens, PASMC, 96 h, log EC50 printed with negative sign, ralinepag alone or + 100 nM drug, from individual fits, 9% FBS + 0.1% DMSO, 4 days, read-out: Log EC50 (n = 5) (converted)", "value": 25.1, "unit": "nM"}, {"measurement": "EC50", "setting": "[2]; Homo sapiens, PASMC, 96 h, log EC50 printed with negative sign, ralinepag alone or + 100 nM drug, from mean fits, 9% FBS + 0.1% DMSO, 4 days, read-out: Log EC50 (n = 5) (converted)", "value": 44.7, "unit": "nM"}, {"measurement": "Emax", "setting": "[2]; [4]", "value": "58.2 ± 4.1", "unit": "%"}, {"measurement": "EC50", "setting": "[2]; Homo sapiens, PASMC, 96 h, ralinepag alone or + 100 nM drug, from mean fits, 9% FBS + 0.1% DMSO, 4 days, read-out: EC50", "value": 44, "unit": "nM"}, {"measurement": "Emax", "setting": "[2]; Homo sapiens, PASMC, 96 h, ralinepag alone or + 100 nM drug, from mean fits, 9% FBS + 0.1% DMSO, 4 days", "value": "59.6 ± 17.3", "unit": "%"}, {"measurement": "EC50", "setting": "[2]; Homo sapiens, PASMC, ralinepag in the presence of 100 nM sildenafil, individual fits, read-out: EC50", "value": 5, "unit": "nM"}, {"measurement": "dose of ralinepag at which cell proliferation was inhibited", "setting": "[2]; combined with 100 nM macitentan", "value": 0.1, "unit": "nM"}, {"measurement": "dose of ralinepag at which significant inhibition of cell growth occurred", "setting": "[2]; combined with 100 nM treprostinil", "value": 0.1, "unit": "nM"}, {"measurement": "fold lower dose of ralinepag giving significant inhibition of cell growth", "setting": "[2]; combined with 100 nM treprostinil vs ralinepag alone", "value": 10, "unit": "fold"}, {"measurement": "antiproliferative effect compared to ralinepag alone", "setting": "[2]; in the presence of 100 nM bosentan, mean data", "value": "not more effective"}, {"measurement": "antiproliferative effect compared to ralinepag alone", "setting": "[2]; in the presence of 100 nM macitentan, mean data", "value": "not significantly more effective"}, {"measurement": "fold lower dose of ralinepag giving significant inhibition of cell growth", "setting": "[2]; in the presence of 100 nM riociguat vs ralinepag alone", "value": 100, "unit": "fold"}, {"measurement": "antiproliferative effect compared to ralinepag alone", "setting": "[2]; in the presence of 100 nM riociguat, 0.01-10,000 nM ralinepag, mean data", "value": "significantly more effective at 10 nM and above"}, {"measurement": "times more potent than ralinepag alone", "setting": "[2]; [5]", "value": "~2.5", "unit": "times"}, {"measurement": "potency enhancement", "setting": "[2]; in the presence of 100 nM riociguat, mean fits (Table 2)", "value": 8, "unit": "fold"}, {"measurement": "antiproliferative effect compared to ralinepag alone", "setting": "[2]; in the presence of 100 nM sildenafil, 0.01-10,000 nM ralinepag", "value": "significantly (P<0.001, two-way ANOVA) more effective"}, {"measurement": "times more potent than ralinepag alone", "setting": "[2]; in the presence of 100 nM sildenafil", "value": "~5", "unit": "times"}, {"measurement": "maximum response compared to ralinepag alone", "setting": "[2]; in the presence of riociguat or treprostinil (100 nM)", "value": "significantly greater maximum response"}, {"measurement": "concentration at which ralinepag started to significantly inhibit cell proliferation", "setting": "[2]; ralinepag alone, not lowered by 100 nM bosentan", "value": "InM"}, {"measurement": "plasma half-life", "setting": "Half-life in vivo", "value": "relatively long plasma half-life"}, {"measurement": "inhibition at 0.001 µM", "setting": "[3]; Homo sapiens, PASMC, 1 nM ralinepag alone", "value": 14, "unit": "%"}, {"measurement": "inhibition at 0.01 µM", "setting": "[3]; Homo sapiens, PASMC, 10 nM ralinepag in the presence of 100 nM bosentan", "value": 21, "unit": "%"}, {"measurement": "inhibition at 10 µM", "setting": "[3]; Homo sapiens, PASMC, 10 μM ralinepag alone (highest dose tested)", "value": 50, "unit": "%"}, {"measurement": "inhibition at 0.1 µM", "setting": "[3]; Homo sapiens, PASMC, 96 h, drug alone at 100 nM, compared to FBS and DMSO, 4 days", "value": 28, "unit": "%"}, {"measurement": "EC50", "setting": "[3]; [4]", "value": 25, "unit": "nM"}, {"measurement": "EC50", "setting": "[3]; Homo sapiens, PASMC, ralinepag in the presence of 100 nM riociguat, individual fits", "value": 10, "unit": "nM"}, {"measurement": "antiproliferative response in the presence of an IP receptor antagonist", "setting": "[3]; IP receptor antagonist RO-1138452 (1 μM)", "value": "completely inhibited"}, {"measurement": "maximal effect compared with treprostinil", "setting": "[3]; cell proliferation assay", "value": "weaker maximal effects"}, {"measurement": "fold lower dose of ralinepag inhibiting cell proliferation", "setting": "[3]; combined with 100 nM macitentan vs ralinepag alone", "value": 10, "unit": "fold"}, {"measurement": "IP receptor dependence of the effect", "setting": "[3]; cyclic AMP and cell proliferation assays in human PASMCs from PAH patients", "value": "selective IP receptor agonists"}, {"measurement": "dose of ralinepag at which significant inhibition of cell growth occurred", "setting": "[3]; [5]", "value": 10, "unit": "pM"}, {"measurement": "potency enhancement", "setting": "[3]; in the presence of 100 nM sildenafil, mean fits (Table 2)", "value": 8, "unit": "fold"}, {"measurement": "antiproliferative effect compared to ralinepag alone", "setting": "[3]; in the presence of 100 nM treprostinil, entire concentration range, mean data", "value": "more effective in the presence of treprostinil"}, {"measurement": "fold more antiproliferation effects than MRE-269", "setting": "[3]; ralinepag vs MRE-269", "value": 10, "unit": "fold"}]}]}
